Test results from ChEMBL document CHEMBL5523756, “Molecular Transformers: Adaptive Multitarget Ligands for Esterase-Induced Transition from Analgesics to Anesthetics” (J Med Chem, 2024).

Tests used:
Format in all cases: organism-based
[1] = Toxicity in ICR mouse assessed as effect on biochemical parameters at 1.5 times ED50, iv administered as single dose; details: in vivo
[2] = Toxicity in Sprague-Dawley rat assessed as alterations in QRS complex duration at 19 mg/kg administered as continuous infusion followed by maintenance at 3.25 mg/kg/min for 0 to 20 mins, 2.5 mg/kg/min for 20 to 30 mins and 2 mg/kg/min for 30 to 60 mins by electrocardiogram recording; details: in vivo, other, 1 h, route par
[3] = Toxicity in Sprague-Dawley rat assessed as effect on LDH level at 19 mg/kg administered as continuous infusion followed by maintenance at 3.25 mg/kg/min for 0 to 20 mins, 2.5 mg/kg/min for 20 to 30 mins and 2 mg/kg/min for 30 to 60 mins; details: in vivo, other, 1 h, route par

Measured: Activity

CCN(CC)CCOC(=O)Oc1c(C(C)C)cccc1C(C)C.Cl
Non-Toxic: all assays above
